Data reported in patent US9241928B2, “Antimicrobial compounds” (The General Hospital Corporation, priority 2009, dated 2016).

Assays:
Type in all cases: in vivo, Caenorhabditis elegans
F35E12.5::GFP = assay: Immune GFP reporter induction, transgene acIs101; conditions: compound-exposed versus DMSO-exposed animals, visual
Text: (§1) Caenorhabditis elegans strains were maintained on Escherichia coli OP50 as described in Brenner, Genetics, 1974, 77:71-94. Wildtype N2 nematodes carrying integrated transgenes acIs219 (AU78), acIs101(AY101), agIs17(AU133), or agIs26 (AU185) (see (1) Shivers, et al., PLoS. Genet. 2010, 6: e1000892, (2) Bolz et al., J. Biol. Chem. 2010, 285:10832-40, (3) Estes et al., Proc. Natl. Acad. Sci., 2010, 107:2153-8, and (4) Irazoqui et al., Proc. Natl. Acad. Sci., 2008, 105:17469-74) were used to assay the immunomodulatory activity of candidate compounds. […] Fold change was calculated using the Pfaffl method (see Pfaffl et al., Nucleic Acids Res., 2001, 29:e45).
Without wishing to be bound by theory, it was hypothesized that a subset of these compounds cured nematode infection by directly activating the innate immune response of the animal. […] First, the inventors studied four C. elegans strains in which the promoter of the nematode immune response genes T24B8.5, F35E12.5, irg-1 and clec-60 were individually fused to GFP, generating transgenes acIs219 (AU78), acIs101(AY101), agIs17(AU133), or agIs26 (AU185), respectively, thereby allowing a visual readout of gene activity in each strain. […]

T24B8.5::GFP = assay: Immune GFP reporter induction, transgene acIs219; conditions: compound-exposed versus DMSO-exposed animals, visual
Text: as §1, with “compounds. For qRT-PCR experiments, RNA was extracted from synchronized young adult nematodes exposed to a candidate compound or DMSO (as a control) using TRI Reagent and reverse transcribed using the Retroscript kit (Ambion). This cDNA was then subjected to qRT-PCR analysis using SYBR green detection on a CFX1000 machine (Bio-Rad, http://www.bio-rad.com). Primers for qRT-PCR were obtained from published sequences (see Irazoqui et al., Proc. Natl. Acad. Sci., 2008, 105:17469-74 and Troemel et al., PLoS Genet. 2006, 2:e183).” for “compounds.”
Without wishing to be bound by theory, it was hypothesized that a subset of these compounds cured nematode infection by directly activating the innate immune response of the animal. To test this hypothesis, a multi-faceted approach was used. First, the inventors studied four C. elegans strains in which the promoter of the nematode immune response genes T24B8.5, F35E12.5, irg-1 and clec-60 were individually fused to GFP, generating transgenes acIs219 (AU78), acIs101(AY101), agIs17(AU133), or agIs26 (AU185), respectively, thereby allowing a visual readout of gene activity in each strain. Using these reporter strains, the ability of 33 compounds previously shown to have anti-Enterococcal killing activity in the C. elegans infection assay (24 of which have been described above) were tested for their ability to modulate the nematode immune response.

immune response genes = assay: qRT-PCR of immune response genes, PMK-1 dependence (overall); conditions: 20 μg/mL, N2 or pmk-1 mutant animals
Text: as §1, with “compounds. For qRT-PCR experiments, RNA was extracted from synchronized young adult nematodes exposed to a candidate compound or DMSO (as a control) using TRI Reagent and reverse transcribed using the Retroscript kit (Ambion). This cDNA was then subjected to qRT-PCR analysis using SYBR green detection on a CFX1000 machine (Bio-Rad, http://www.bio-rad.com). Primers for qRT-PCR were obtained from published sequences (see Irazoqui et al., Proc. Natl. Acad. Sci., 2008, 105:17469-74 and Troemel et al., PLoS Genet. 2006, 2:e183).” for “compounds.”
By using the assay described above, the inventors identified five compounds (i.e., Compounds 11, 18, 20, 25, and 26) that robustly and reproducibly activated the immune GFP reporters (see FIG. 5 and Table 3) or activated selected immune response genes as determined by quantitative RT-PCR analysis (see Table 4). For the latter experiments, RNA was isolated from wild-type C. elegans N2 or pmk-1 mutant animals exposed to the candidate immunomodulatory compounds at 20 μg/mL and from animals exposed to DMSO. The inventors tested several immune response genes in compound-exposed animals that are known to be regulated by PMK-1, the p38 Mitogen Acitvated Protein kinase homolog, an evolutionary-conserved, central regulator of nematode immunity. The inventors also used qRT-PCR to measure the activation of several immune response genes that are known to be activated independently of PMK-1. […]

C49G7.5 = assay: qRT-PCR of immune response gene expression; conditions: 20 μg/mL versus DMSO
Text: as §1, with “compounds. For qRT-PCR experiments, RNA was extracted from synchronized young adult nematodes exposed to a candidate compound or DMSO (as a control) using TRI Reagent and reverse transcribed using the Retroscript kit (Ambion). This cDNA was then subjected to qRT-PCR analysis using SYBR green detection on a CFX1000 machine (Bio-Rad, http://www.bio-rad.com). Primers for qRT-PCR were obtained from published sequences (see Irazoqui et al., Proc. Natl. Acad. Sci., 2008, 105:17469-74 and Troemel et al., PLoS Genet. 2006, 2:e183).” for “compounds.”
(§2) By using the assay described above, the inventors identified five compounds (i.e., Compounds 11, 18, 20, 25, and 26) that robustly and reproducibly activated the immune GFP reporters (see FIG. 5 and Table 3) or activated selected immune response genes as determined by quantitative RT-PCR analysis (see Table 4). For the latter experiments, RNA was isolated from wild-type C. elegans N2 or pmk-1 mutant animals exposed to the candidate immunomodulatory compounds at 20 μg/mL and from animals exposed to DMSO. The inventors tested several immune response genes in compound-exposed animals that are known to be regulated by PMK-1, the p38 Mitogen Acitvated Protein kinase homolog, an evolutionary-conserved, central regulator of nematode immunity. The inventors also used qRT-PCR to measure the activation of several immune response genes that are known to be activated independently of PMK-1. […] Thus, without wishing to be bound by theory, it is believed that a subset of the compounds identified in the screen for novel anti-infective compounds directly stimulate the immune response of the nematode and that these compounds act both by directly stimulating the PMK-1 pathway and by unidentified parallel immune response pathways.

F56D6.2 = assay: qRT-PCR of immune response gene expression; conditions: 20 μg/mL versus DMSO
Text: as §1, with “compounds. For qRT-PCR experiments, RNA was extracted from synchronized young adult nematodes exposed to a candidate compound or DMSO (as a control) using TRI Reagent and reverse transcribed using the Retroscript kit (Ambion). This cDNA was then subjected to qRT-PCR analysis using SYBR green detection on a CFX1000 machine (Bio-Rad, http://www.bio-rad.com). Primers for qRT-PCR were obtained from published sequences (see Irazoqui et al., Proc. Natl. Acad. Sci., 2008, 105:17469-74 and Troemel et al., PLoS Genet. 2006, 2:e183).” for “compounds.”
as §2

F35E12.5 = assay: qRT-PCR of immune response gene expression; conditions: 20 μg/mL versus DMSO
Text: as §1, with “compounds. For qRT-PCR experiments, RNA was extracted from synchronized young adult nematodes exposed to a candidate compound or DMSO (as a control) using TRI Reagent and reverse transcribed using the Retroscript kit (Ambion). This cDNA was then subjected to qRT-PCR analysis using SYBR green detection on a CFX1000 machine (Bio-Rad, http://www.bio-rad.com). Primers for qRT-PCR were obtained from published sequences (see Irazoqui et al., Proc. Natl. Acad. Sci., 2008, 105:17469-74 and Troemel et al., PLoS Genet. 2006, 2:e183).” for “compounds.”
as §2

C17H12.8 = assay: qRT-PCR of immune response gene expression; conditions: 20 μg/mL versus DMSO
Text: as §1, with “compounds. For qRT-PCR experiments, RNA was extracted from synchronized young adult nematodes exposed to a candidate compound or DMSO (as a control) using TRI Reagent and reverse transcribed using the Retroscript kit (Ambion). This cDNA was then subjected to qRT-PCR analysis using SYBR green detection on a CFX1000 machine (Bio-Rad, http://www.bio-rad.com). Primers for qRT-PCR were obtained from published sequences (see Irazoqui et al., Proc. Natl. Acad. Sci., 2008, 105:17469-74 and Troemel et al., PLoS Genet. 2006, 2:e183).” for “compounds.”
as §2

irg-1 = assay: qRT-PCR of immune response gene expression; conditions: 20 μg/mL versus DMSO
Text: as §1, with “compounds. For qRT-PCR experiments, RNA was extracted from synchronized young adult nematodes exposed to a candidate compound or DMSO (as a control) using TRI Reagent and reverse transcribed using the Retroscript kit (Ambion). This cDNA was then subjected to qRT-PCR analysis using SYBR green detection on a CFX1000 machine (Bio-Rad, http://www.bio-rad.com). Primers for qRT-PCR were obtained from published sequences (see Irazoqui et al., Proc. Natl. Acad. Sci., 2008, 105:17469-74 and Troemel et al., PLoS Genet. 2006, 2:e183).” for “compounds.”
as §2

T24B8.5 = assay: qRT-PCR of immune response gene expression; conditions: 20 μg/mL versus DMSO
Text: as §1, with “compounds. For qRT-PCR experiments, RNA was extracted from synchronized young adult nematodes exposed to a candidate compound or DMSO (as a control) using TRI Reagent and reverse transcribed using the Retroscript kit (Ambion). This cDNA was then subjected to qRT-PCR analysis using SYBR green detection on a CFX1000 machine (Bio-Rad, http://www.bio-rad.com). Primers for qRT-PCR were obtained from published sequences (see Irazoqui et al., Proc. Natl. Acad. Sci., 2008, 105:17469-74 and Troemel et al., PLoS Genet. 2006, 2:e183).” for “compounds.”
as §2

F53E10.4 = assay: qRT-PCR of immune response gene expression; conditions: 20 μg/mL versus DMSO
Text: as §1, with “compounds. For qRT-PCR experiments, RNA was extracted from synchronized young adult nematodes exposed to a candidate compound or DMSO (as a control) using TRI Reagent and reverse transcribed using the Retroscript kit (Ambion). This cDNA was then subjected to qRT-PCR analysis using SYBR green detection on a CFX1000 machine (Bio-Rad, http://www.bio-rad.com). Primers for qRT-PCR were obtained from published sequences (see Irazoqui et al., Proc. Natl. Acad. Sci., 2008, 105:17469-74 and Troemel et al., PLoS Genet. 2006, 2:e183).” for “compounds.”
as §2

Cc1ccc(Nc2nc(N)c3ccccc3n2)cc1Cl [Compound 26]
immune reporter induction F35E12.5::GFP (F35E12.5::GFP): + | immune reporter induction T24B8.5::GFP (T24B8.5::GFP): + | PMK-1 dependence of immune response gene activation (immune response genes): activated at least one immune response gene in the nematode in a manner independent of PMK-1 | C49G7.5 expression, average fold-change (C49G7.5; genotype N2): 1.8 fold-change | C49G7.5 expression, average fold-change (C49G7.5; genotype pmk-1(km25)): 6.3 fold-change | F56D6.2 expression, average fold-change (F56D6.2; genotype N2): 13.1 fold-change | F56D6.2 expression, average fold-change (F56D6.2; genotype pmk-1(km25)): 0.6 fold-change | F35E12.5 expression, average fold-change (F35E12.5; genotype N2): 156.1 fold-change | F35E12.5 expression, average fold-change (F35E12.5; genotype pmk-1(km25)): 149.0 fold-change | C17H12.8 expression, average fold-change (C17H12.8; genotype N2): 1.1 fold-change | C17H12.8 expression, average fold-change (C17H12.8; genotype pmk-1(km25)): 0.4 fold-change | irg-1 expression, average fold-change (irg-1; genotype N2): 1.1 fold-change | irg-1 expression, average fold-change (irg-1; genotype pmk-1(km25)): 4.0 fold-change | T24B8.5 expression, average fold-change (T24B8.5; genotype N2): 1.6 fold-change | T24B8.5 expression, average fold-change (T24B8.5; genotype pmk-1(km25)): 1.8 fold-change | F53E10.4 expression, average fold-change (F53E10.4; genotype N2): 0.3 fold-change | F53E10.4 expression, average fold-change (F53E10.4; genotype pmk-1(km25)): 0.8 fold-change
